Results on four molecules are retold here after US20260041796A1, “REGULATION OF IMMUNE RESPONSES THROUGH SELECTIVE NEURAL ACTIVATION” (The Trustees of Columbia University in the City of New York, priority 2021, published 2026).

Experiment [1] deals with caudal nucleus of the solitary tract (cNST). Briefly: Fos induction in the brain after peripheral LPS immune challenge. Particulars: LPS stimulus vs saline control; c-fos as proxy for neural activity. Type of experiment: in vivo. The source says: Peripheral immune challenge evokes brain activities. LPS was used to induce an innate immune response and the brain was examined for the induction of c-fos as a proxy for neural activity. […] When the body experiences bacterial infections, the bacterial membrane component lipopolysaccharide (LPS) triggers strong innate immune response. LPS (right) but not saline control (left) strongly activates cNST (circled area). For each condition, a representative image from N>=3 animals is shown. Scale bar: 100 μm. Strong bilateral c-fos labeling was detected in the caudal nucleus of the solitary tract (cNST) in the brainstem.
A brainstem circuit that functions as a conduit to convey peripheral immune information to the brain was identified. […] Using an activity marker (cFos induction), it was determined that a selective population of neurons in the brain are activated in response to administration of a peripheral immune insult.
It was shown that neurons in the caudal nucleus of the solitary tract (cNST) in the brainstem are activated by peripheral (intraperitoneal) administration of LPS (lipopolysaccharide), a potent inducer of inflammatory responses (FIG. 5). […] Next, to uncover the role of these cNST neurons in immune responses, a chemogenetic silencer was introduced by genetic Trapping, and the effect of silencing these cNST neurons in the emergence of LPS-induced inflammatory responses was evaluated.

Experiment [2] relates to LPS-TRAPed population in the cNST. Briefly: Blood cytokine levels after LPS with chemogenetic (DREADD) activation of LPS-TRAPed cNST neurons. Type of experiment: in vivo. The method, then: FIG. 12 illustrates the effect of neuronal stimulation in the caudal nucleus of the solitary tract on the immune response. […] Neuronal populations were chemogenetically activated with designer receptor exclusively activated by a designer drug (DREADD) while the animal is given LPS and cytokine levels in the blood were measured. In the control animals, LPS induced the strong release of pro-inflammatory TNFa, reaching 200 pg/ml in the peripheral blood. When this brainstem neuronal population was activated with DREADD, there was a remarkable suppression of pro-inflammatory cytokine release, resulting in 90% reduction in the TNFa in the blood. The same results were obtained for another proinflammatory cytokine, IL-6. In addition to suppressing the release of pro-inflammatory cytokines, activation of this neuronal population markedly increase the release of the anti-inflammatory cytokine, IL-10. Thus, this brain circuit triggers a strong anti-inflammatory response while suppressing pro-inflammatory cytokines. Note that under normal conditions (control) the immune insult triggers a very large induction of pro-inflammatory cytokines (TNFa; left panels), and this induction is suppressed by activation of the cNST neurons (compare bars). […]
FIG. 19 illustrates that activating cNST-responsive neurons dramatically suppresses inflammatory responses. […] These neurons were artificially activated after LPS using a synthetic drug, CNO, and then cytokine levels in the circulation were analyzed in response to LPS.
It was shown that neurons in the caudal nucleus of the solitary tract (cNST) in the brainstem are activated by peripheral (intraperitoneal) administration of LPS (lipopolysaccharide), a potent inducer of inflammatory responses (FIG. 5). […] Next, to uncover the role of these cNST neurons in immune responses, a chemogenetic silencer was introduced by genetic Trapping, and the effect of silencing these cNST neurons in the emergence of LPS-induced inflammatory responses was evaluated. […]

Experiment [3] deals with caudal nucleus of the solitary tract (cNST). Briefly: TRAP activity-based labelling of LPS-responsive neurons. The format is in vivo. Particulars: LPS-treated vs saline treated animals. From the text:
The activity based labelling strategy, TRAP, was used to identify and access neuronal populations activated during LPS induced inflammation. Neurons TRAPed by LPS (right) but not saline control (left) are seen in the cNST (circled area). For each condition, a representative image from N>=3 animals is shown. Scale bar: 500 μm.
It was shown that neurons in the caudal nucleus of the solitary tract (cNST) in the brainstem are activated by peripheral (intraperitoneal) administration of LPS (lipopolysaccharide), a potent inducer of inflammatory responses (FIG. 5). […] In other words, the brain monitors and modulates immune responses in the body. […] Next, to uncover the role of these cNST neurons in immune responses, a chemogenetic silencer was introduced by genetic Trapping, and the effect of silencing these cNST neurons in the emergence of LPS-induced inflammatory responses was evaluated.

The test system of experiment [4] is vagal sensory neurons. Briefly: In-vivo calcium imaging (GCaMP6s) of nodose ganglion after intraperitoneal cytokine. As to conditions: intraperitoneal injection; no response to saline or glucose. The method, then:
FIG. 7 illustrates a subset of neurons in the nodose ganglion that respond to pro-inflammatory cytokines. Calcium responses in vagal sensory neurons expressing the genetically encoded fluorescent calcium indicator GCaMP6s were imaged while administering cytokines intraperitoneally. The platform was modified to image the response of vagal sensory neurons to cytokines. The cytokine was administered via intraperitoneal injection and calcium activity in the nodose ganglion was monitored. Heat maps depicting z-score-normalized fluorescence traces from vagal neurons identified as responders of proinflammatory cytokine (TNFa). Neural activity was detected using an in-vivo calcium imaging platform with genetically encoded calcium indicator GCaMP6 expressed in all vagal sensory neurons. Each trial represents the activity of a single cell. […]
FIG. 8 illustrates a subset of neurons in the nodose ganglion that respond to anti-inflammatory cytokines. Heat maps depicting z-score-normalized fluorescence traces from vagal neurons identified as responders of anti-inflammatory cytokines (IL-4). […] Neural activity was detected using an in-vivo calcium imaging platform with genetically encoded calcium indicator GCaMP6 expressed in all vagal sensory neurons. […] The cytokine was administered via intraperitoneal injection and calcium activity in the nodose ganglion was monitored. […]

Setting [5] is: TRAPed cNST neurons activated after LPS, cytokine levels in the circulation.

As to lipopolysaccharide [LPS], the “Fos induction in the cNST” value in experiment [1] is “Strong Fos induction”. Further, the “TNFa in the peripheral blood” value in experiment [2] (control animals given LPS, no neuronal activation) was found to be 200 pg/mL. Besides, the “labelling of cNST with fluorescence reporter (tdTomato)” value in experiment [3] is “Strong labelling”. For TNFa, the “calcium activity in a subset of vagal sensory neurons” value in experiment [4] is reported as “robust activity”. On to `C[N+]1([O-])CCN(C2=Nc3cc(Cl)ccc3Nc3ccccc32)CC1` [CNO, clozapine N-oxide], for which, in experiment [2] (setting [5]), the “levels of anti-inflammatory cytokines” value is “very large increase” and the “release of pro-inflammatory cytokines” value is recorded as “dramatic suppression”.

B1: IL-4: anti-inflammatory cytokine administered intraperitoneally (protein, UniProt P05112 25-153, looked up)
Interleukin-4: HKCDITLQEIIKTLNSLTEQKTLCTELTVTDIFAASKNTTEKETFCRAATVLRQFYSHHEKDTRCLGATAQQFHRHKQLIRFLKRLDRNLWGLAGLNSCPVKEANQSTLENFLERLKTIMREKYSKCSS
B1: the “calcium activity in a subset of vagal sensory neurons” value in experiment [4] is recorded as “robust activity”.
